We go through eight compounds from article PMC5518309 (ChemMedChem, 2014).

Numbered stars: 1 amine (or outer) side, 2 acyl side, 3 side chain; on linkers, the order of the positions; unused ones are H or OH. Side chains are listed from the residue outwards. Peptide text beside a SMILES is read from it. * marks the point of attachment. X1 = CN(C)c1ccc2c(c1)Oc1cc(N(C)C)ccc1C21OC(=O)c2ccc(C(=O)*)cc21; γGlu = O=C(O)[C@H](CCC(=O)[*:2])N[*:1]; Palmitoyl = CCCCCCCCCCCCCCCC(=O)*; Octanoyl = CCCCCCCC(=O)*; Propionyl = CCC(=O)*

Series [1] is described as follows: Metabolic stability in porcine liver homogenates. Conditions: pig, porcine liver homogenate (supernatant). The series is classed as in vitro ADME.
The nature of series [2]: Stability test in human blood plasma. The series is classed as in vitro ADME. The note with it: for half-life at 10 μM: human.
Series [3] deals with hY4R (Homo sapiens, UniProt P50391). Description: Radioligand binding assay, displacement of [3H]-hPP.
For series [4] the following is noted: cited from earlier work.

Chain of hY4R (P50391 whole entry): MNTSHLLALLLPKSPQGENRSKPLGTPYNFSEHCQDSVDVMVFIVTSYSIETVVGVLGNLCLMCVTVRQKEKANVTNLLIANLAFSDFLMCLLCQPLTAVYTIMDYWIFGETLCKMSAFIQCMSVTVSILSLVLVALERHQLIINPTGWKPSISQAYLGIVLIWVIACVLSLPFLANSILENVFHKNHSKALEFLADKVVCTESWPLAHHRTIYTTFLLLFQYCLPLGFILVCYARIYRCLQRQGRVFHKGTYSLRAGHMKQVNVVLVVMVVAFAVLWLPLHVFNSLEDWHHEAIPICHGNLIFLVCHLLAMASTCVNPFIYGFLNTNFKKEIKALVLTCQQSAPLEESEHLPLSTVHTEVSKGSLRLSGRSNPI

Regarding `CCC(=O)N[C@@H](CCC(=O)NCCCC[C@H](NC(=O)[C@H](CC(N)=O)NC(=O)[C@@H](NC(=O)[C@H](Cc1ccc(O)cc1)NC(=O)[C@H](CCCNC(=N)N)NC(=O)[C@H](CCCNC(=N)N)NC(=O)[C@H](CC(C)C)NC(=O)[C@H](CC(=O)O)NC(=O)[C@H](C)NC(=O)[C@H](C)NC(=O)[C@H](Cc1ccc(O)cc1)NC(=O)[C@H](CCC(N)=O)NC(=O)[C@H](C)NC(=O)[C@H](CCSC)NC(=O)[C@H](CCC(N)=O)NC(=O)[C@H](CCC(=O)O)NC(=O)[C@@H]1CCCN1C(=O)[C@@H](NC(=O)[C@H](C)NC(=O)[C@H](CC(N)=O)NC(=O)[C@H](CC(=O)O)NC(=O)CNC(=O)[C@@H]1CCCN1C(=O)[C@H](Cc1ccc(O)cc1)NC(=O)[C@@H](NC(=O)[C@@H]1CCCN1C(=O)[C@H](CCC(=O)O)NC(=O)[C@H](CC(C)C)NC(=O)[C@@H]1CCCN1C(=O)c1ccc2c(c1)C1(OC2=O)c2ccc(N(C)C)cc2Oc2cc(N(C)C)ccc21)C(C)C)[C@@H](C)O)[C@@H](C)CC)C(=O)N[C@@H](CC(C)C)C(=O)N[C@H](C(=O)N[C@@H](CCCNC(=N)N)C(=O)N1CCC[C@H]1C(=O)N[C@@H](CCCNC(=N)N)C(=O)N[C@@H](Cc1ccc(O)cc1)C(N)=O)[C@@H](C)O)C(=O)O` [15b, TAMRA-[K^30(E-Prop)]hPP2–36] (X1-PLEPVYPGDNATPEQMAQYAADLRRYINK([γGlu-Propionyl])LTRPRY-NH2), the half-life at 10 μM is 46.7 ± 6.6 h in series [1] and 474 ± 17.3 h in series [2].

For `CCCCCCCC(=O)N[C@@H](CCC(=O)NCCCC[C@H](NC(=O)[C@H](CC(N)=O)NC(=O)[C@@H](NC(=O)[C@H](Cc1ccc(O)cc1)NC(=O)[C@H](CCCNC(=N)N)NC(=O)[C@H](CCCNC(=N)N)NC(=O)[C@H](CC(C)C)NC(=O)[C@H](CC(=O)O)NC(=O)[C@H](C)NC(=O)[C@H](C)NC(=O)[C@H](Cc1ccc(O)cc1)NC(=O)[C@H](CCC(N)=O)NC(=O)[C@H](C)NC(=O)[C@H](CCSC)NC(=O)[C@H](CCC(N)=O)NC(=O)[C@H](CCC(=O)O)NC(=O)[C@@H]1CCCN1C(=O)[C@@H](NC(=O)[C@H](C)NC(=O)[C@H](CC(N)=O)NC(=O)[C@H](CC(=O)O)NC(=O)CNC(=O)[C@@H]1CCCN1C(=O)[C@H](Cc1ccc(O)cc1)NC(=O)[C@@H](NC(=O)[C@@H]1CCCN1C(=O)[C@H](CCC(=O)O)NC(=O)[C@H](CC(C)C)NC(=O)[C@@H]1CCCN1C(=O)c1ccc2c(c1)C1(OC2=O)c2ccc(N(C)C)cc2Oc2cc(N(C)C)ccc21)C(C)C)[C@@H](C)O)[C@@H](C)CC)C(=O)N[C@@H](CC(C)C)C(=O)N[C@H](C(=O)N[C@@H](CCCNC(=N)N)C(=O)N1CCC[C@H]1C(=O)N[C@@H](CCCNC(=N)N)C(=O)N[C@@H](Cc1ccc(O)cc1)C(N)=O)[C@@H](C)O)C(=O)O` [16b, TAMRA-[K^30(E-Capr)]hPP2–36] (X1-PLEPVYPGDNATPEQMAQYAADLRRYINK([γGlu-Octanoyl])LTRPRY-NH2), the figures for the half-life at 10 μM in series [1] and in series [2] were 14.6 ± 2.8 h and 281 ± 26.7 h, respectively.

Consider `CCCCCCCCCCCCCCCC(=O)N[C@@H](CCC(=O)NCCCC[C@H](NC(=O)[C@H](CC(N)=O)NC(=O)[C@@H](NC(=O)[C@H](Cc1ccc(O)cc1)NC(=O)[C@H](CCCNC(=N)N)NC(=O)[C@H](CCCNC(=N)N)NC(=O)[C@H](CC(C)C)NC(=O)[C@H](CC(=O)O)NC(=O)[C@H](C)NC(=O)[C@H](C)NC(=O)[C@H](Cc1ccc(O)cc1)NC(=O)[C@H](CCC(N)=O)NC(=O)[C@H](C)NC(=O)[C@H](CCSC)NC(=O)[C@H](CCC(N)=O)NC(=O)[C@H](CCC(=O)O)NC(=O)[C@@H]1CCCN1C(=O)[C@@H](NC(=O)[C@H](C)NC(=O)[C@H](CC(N)=O)NC(=O)[C@H](CC(=O)O)NC(=O)CNC(=O)[C@@H]1CCCN1C(=O)[C@H](Cc1ccc(O)cc1)NC(=O)[C@@H](NC(=O)[C@@H]1CCCN1C(=O)[C@H](CCC(=O)O)NC(=O)[C@H](CC(C)C)NC(=O)[C@@H]1CCCN1C(=O)c1ccc2c(c1)C1(OC2=O)c2ccc(N(C)C)cc2Oc2cc(N(C)C)ccc21)C(C)C)[C@@H](C)O)[C@@H](C)CC)C(=O)N[C@@H](CC(C)C)C(=O)N[C@H](C(=O)N[C@@H](CCCNC(=N)N)C(=O)N1CCC[C@H]1C(=O)N[C@@H](CCCNC(=N)N)C(=O)N[C@@H](Cc1ccc(O)cc1)C(N)=O)[C@@H](C)O)C(=O)O` [18b, TAMRA-[K^30(E-Pam)]hPP2–36] (X1-PLEPVYPGDNATPEQMAQYAADLRRYINK([γGlu-Palmitoyl])LTRPRY-NH2), for which the half-life at 10 μM is 11.8 ± 0.8 h in series [1] and 1090 ± 282 h in series [2]. The “fold increased half-life in human blood plasma compared to control peptide 14b” value in series [2] (37°C) is recorded as “more than 10 fold”.

Turning to `CCCCCCCCCCCCCCCC(=O)N[C@@H](CCC(=O)NCCCC[C@H](NC(=O)[C@@H](NC(=O)[C@@H]1CCCN1C(=O)[C@H](CCC(=O)O)NC(=O)[C@H](CC(C)C)NC(=O)[C@@H]1CCCN1C(=O)[C@H](C)NC(=O)c1ccc2c(c1)C(=O)OC21c2ccc(O)cc2Oc2cc(O)ccc21)C(C)C)C(=O)N1CCC[C@H]1C(=O)NCC(=O)N[C@@H](CC(=O)O)C(=O)N[C@@H](CC(N)=O)C(=O)N[C@@H](C)C(=O)N[C@H](C(=O)N1CCC[C@H]1C(=O)N[C@@H](CCC(=O)O)C(=O)N[C@@H](CCC(N)=O)C(=O)N[C@@H](CCSC)C(=O)N[C@@H](C)C(=O)N[C@@H](CCC(N)=O)C(=O)N[C@@H](Cc1ccc(O)cc1)C(=O)N[C@@H](C)C(=O)N[C@@H](C)C(=O)N[C@@H](CC(=O)O)C(=O)N[C@@H](CC(C)C)C(=O)N[C@@H](CCCNC(=N)N)C(=O)N[C@@H](CCCNC(=N)N)C(=O)N[C@@H](Cc1ccc(O)cc1)C(=O)N[C@H](C(=O)N[C@@H](CC(N)=O)C(=O)N[C@@H](CCSC)C(=O)N[C@@H](CC(C)C)C(=O)N[C@H](C(=O)N[C@@H](CCCNC(=N)N)C(=O)N1CCC[C@H]1C(=O)N[C@@H](CCCNC(=N)N)C(=O)N[C@@H](Cc1ccc(O)cc1)C(N)=O)[C@@H](C)O)[C@@H](C)CC)[C@@H](C)O)C(=O)O` [compound 3, CF-[K^7(E-Pam)]hPP], the IC50 in series [3] came out at 401 nM. In other words, the sub-micromolar range.

In turn, `CCCCCCCCCCCCCCCC(=O)N[C@@H](CCC(=O)NCCCC[C@H](NC(=O)[C@H](C)NC(=O)[C@H](Cc1ccc(O)cc1)NC(=O)[C@H](CCC(N)=O)NC(=O)[C@H](C)NC(=O)[C@H](CCSC)NC(=O)[C@H](CCC(N)=O)NC(=O)[C@H](CCC(=O)O)NC(=O)[C@@H]1CCCN1C(=O)[C@@H](NC(=O)[C@H](C)NC(=O)[C@H](CC(N)=O)NC(=O)[C@H](CC(=O)O)NC(=O)CNC(=O)[C@@H]1CCCN1C(=O)[C@H](Cc1ccc(O)cc1)NC(=O)[C@@H](NC(=O)[C@@H]1CCCN1C(=O)[C@H](CCC(=O)O)NC(=O)[C@H](CC(C)C)NC(=O)[C@@H]1CCCN1C(=O)[C@H](C)NC(=O)c1ccc2c(c1)C(=O)OC21c2ccc(O)cc2Oc2cc(O)ccc21)C(C)C)[C@@H](C)O)C(=O)N[C@@H](CC(=O)O)C(=O)N[C@@H](CC(C)C)C(=O)N[C@@H](CCCNC(=N)N)C(=O)N[C@@H](CCCNC(=N)N)C(=O)N[C@@H](Cc1ccc(O)cc1)C(=O)N[C@H](C(=O)N[C@@H](CC(N)=O)C(=O)N[C@@H](CCSC)C(=O)N[C@@H](CC(C)C)C(=O)N[C@H](C(=O)N[C@@H](CCCNC(=N)N)C(=O)N1CCC[C@H]1C(=O)N[C@@H](CCCNC(=N)N)C(=O)N[C@@H](Cc1ccc(O)cc1)C(N)=O)[C@@H](C)O)[C@@H](C)CC)C(=O)O` [compound 5, CF-[K^22(E-Pam)]hPP] had an IC50 in series [3] of 8.6 nM.

For the compound `CCCCCCCCCCCCCCCC(=O)N[C@@H](CCC(=O)NCCCC[C@H](NC(=O)[C@H](CC(N)=O)NC(=O)[C@@H](NC(=O)[C@H](Cc1ccc(O)cc1)NC(=O)[C@H](CCCNC(=N)N)NC(=O)[C@H](CCCNC(=N)N)NC(=O)[C@H](CC(C)C)NC(=O)[C@H](CC(=O)O)NC(=O)[C@H](C)NC(=O)[C@H](C)NC(=O)[C@H](Cc1ccc(O)cc1)NC(=O)[C@H](CCC(N)=O)NC(=O)[C@H](C)NC(=O)[C@H](CCSC)NC(=O)[C@H](CCC(N)=O)NC(=O)[C@H](CCC(=O)O)NC(=O)[C@@H]1CCCN1C(=O)[C@@H](NC(=O)[C@H](C)NC(=O)[C@H](CC(N)=O)NC(=O)[C@H](CC(=O)O)NC(=O)CNC(=O)[C@@H]1CCCN1C(=O)[C@H](Cc1ccc(O)cc1)NC(=O)[C@@H](NC(=O)[C@@H]1CCCN1C(=O)[C@H](CCC(=O)O)NC(=O)[C@H](CC(C)C)NC(=O)[C@@H]1CCCN1C(=O)[C@H](C)NC(=O)c1ccc2c(c1)C(=O)OC21c2ccc(O)cc2Oc2cc(O)ccc21)C(C)C)[C@@H](C)O)[C@@H](C)CC)C(=O)N[C@@H](CC(C)C)C(=O)N[C@H](C(=O)N[C@@H](CCCNC(=N)N)C(=O)N1CCC[C@H]1C(=O)N[C@@H](CCCNC(=N)N)C(=O)N[C@@H](Cc1ccc(O)cc1)C(N)=O)[C@@H](C)O)C(=O)O` [compound 6, CF-[K^30(E-Pam)]hPP], the IC50 in series [3] was found to be 14.9 nM.

Consider `CC[C@H](C)[C@H](NC(=O)[C@H](Cc1ccc(O)cc1)NC(=O)[C@H](CCCNC(=N)N)NC(=O)[C@H](CCCNC(=N)N)NC(=O)[C@H](CC(C)C)NC(=O)[C@H](CC(=O)O)NC(=O)[C@H](C)NC(=O)[C@H](C)NC(=O)[C@H](Cc1ccc(O)cc1)NC(=O)[C@H](CCC(N)=O)NC(=O)[C@H](C)NC(=O)[C@H](CCSC)NC(=O)[C@H](CCC(N)=O)NC(=O)[C@H](CCC(=O)O)NC(=O)[C@@H]1CCCN1C(=O)[C@@H](NC(=O)[C@H](C)NC(=O)[C@H](CC(N)=O)NC(=O)[C@H](CC(=O)O)NC(=O)CNC(=O)[C@@H]1CCCN1C(=O)[C@H](Cc1ccc(O)cc1)NC(=O)[C@@H](NC(=O)[C@@H]1CCCN1C(=O)[C@H](CCC(=O)O)NC(=O)[C@H](CC(C)C)NC(=O)[C@@H]1CCCN1)C(C)C)[C@@H](C)O)C(=O)N[C@@H](CC(N)=O)C(=O)N[C@@H](CCCCNC(=O)c1ccc2c(c1)C1(OC2=O)c2ccc(N(C)C)cc2Oc2cc(N(C)C)ccc21)C(=O)N[C@@H](CC(C)C)C(=O)N[C@H](C(=O)N[C@@H](CCCNC(=N)N)C(=O)N1CCC[C@H]1C(=O)N[C@@H](CCCNC(=N)N)C(=O)N[C@@H](Cc1ccc(O)cc1)C(N)=O)[C@@H](C)O` [compound 20, [K^30(TAMRA)]hPP2–36] (H-PLEPVYPGDNATPEQMAQYAADLRRYINK(X1)LTRPRY-NH2), for which the half-life at 10 μM in series [1] is 19.7 ± 0.4 h; in series [2], about 100 h.

On to pancreatic polypeptide [PP], for which the “half-life in the circulation” value in series [4] is listed as “less than 7 min”.
